# In paper PMC7619385 (ACS infectious diseases, 2025):
# Target: T1, LmxCLK1 (Leishmania mexicana, UniProt E9AMP2)
# T1 sequence (E9AMP2 1-422): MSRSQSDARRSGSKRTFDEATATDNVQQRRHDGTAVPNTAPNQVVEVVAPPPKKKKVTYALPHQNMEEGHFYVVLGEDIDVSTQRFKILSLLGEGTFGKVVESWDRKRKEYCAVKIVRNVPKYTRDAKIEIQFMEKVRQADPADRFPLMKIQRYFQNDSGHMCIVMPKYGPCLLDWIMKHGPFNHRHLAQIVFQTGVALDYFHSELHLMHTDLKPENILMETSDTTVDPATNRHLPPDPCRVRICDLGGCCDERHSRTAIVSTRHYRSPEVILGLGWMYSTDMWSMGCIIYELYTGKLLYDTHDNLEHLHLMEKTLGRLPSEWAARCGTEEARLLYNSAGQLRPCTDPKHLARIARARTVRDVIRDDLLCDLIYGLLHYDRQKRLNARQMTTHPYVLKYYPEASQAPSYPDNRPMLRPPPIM
# Test: biochemical
# Format: binding
# Settings: not given
Structure (SMILES),ΔTm Average,ΔTm Run 1,ΔTm Run 2
Cc1[nH]c2ccccc2c1C1=C(NCCc2ccc(F)cc2)C(=O)N(C)C1=O [IM-12],-0.2,-0.2,-0.3
COc1cc(Nc2ncc(F)c(Nc3ccc4c(n3)NC(=O)C(C)(C)O4)n2)cc(OC)c1OC [R406],0.4 °C,0.4 °C,0.3 °C
COc1ccc(-c2cc3c(C)nc(N)nc3n([C@H]3CC[C@H](OCCO)CC3)c2=O)cn1 [PF-04691502],0.2 °C,0.3 °C,0.1 °C
CN(C)CCCn1cc(C2=C(c3c[nH]c4ccccc34)C(=O)NC2=O)c2ccccc21 [GF109203X],0.2 °C,0.3 °C,0.1 °C
N#Cc1c(O)c2c(-c3ccc(-c4ccccc4O)cc3)csc2[nH]c1=O [A-769662],-0.1,-0.1,0 °C

# Same assay, conditions: DSF, 10 µM compound, 2 µM LmxCLK1, Run 1
row,Structure (SMILES),ΔTm Run 1 [°C]
1,CC(C)n1nc(-c2ccc3oc(N)nc3c2)c2c(N)ncnc21 [INK 128 (MLN0128)],0.6
2,COc1cc(Nc2ncc(F)c(Nc3ccc4c(n3)N(COP(=O)(O)O)C(=O)C(C)(C)O4)n2)cc(OC)c1OC [Fostamatinib (R788)],0.2
3,Cn1cc(C2=C(c3cn(C4CCN(Cc5ccccn5)CC4)c4ccccc34)C(=O)NC2=O)c2ccccc21 [Enzastaurin (LY317615)],0.1
4,O=C(c1ccc(Nc2nccc(-c3cc4ccccc4s3)n2)cc1)N1CCC(N2CCCC2)CC1 [IKK-16 (IKK Inhibitor VII)],1.9
5,CCN1/C(=C/C(C)=O)Sc2ccc(OC)cc21 [TG003],1.4
6,c1cncc(CN2CCC(n3ncc4c(N5CCOCC5)nc(-c5ccc6[nH]ccc6c5)nc43)CC2)c1 [WAY-600],0.0
7,CC(C)(C)c1nc(-c2cccc(NS(=O)(=O)c3c(F)cccc3F)c2F)c(-c2ccnc(N)n2)s1 [Dabrafenib (GSK2118436)],-0.2
8,O=C(NCc1ccccc1)c1csc(Nc2ccncn2)n1 [Thiazovivin],0.3

# Same assay, conditions: DSF, 10 µM compound, 2 µM LmxCLK1, Run 2
row,Structure (SMILES),ΔTm Run 2 [°C]
1,CC(C)n1nc(-c2ccc3oc(N)nc3c2)c2c(N)ncnc21 [INK 128 (MLN0128)],0.5
2,COc1cc(Nc2ncc(F)c(Nc3ccc4c(n3)N(COP(=O)(O)O)C(=O)C(C)(C)O4)n2)cc(OC)c1OC [Fostamatinib (R788)],0.2
3,Cn1cc(C2=C(c3cn(C4CCN(Cc5ccccn5)CC4)c4ccccc34)C(=O)NC2=O)c2ccccc21 [Enzastaurin (LY317615)],-0.2
4,O=C(c1ccc(Nc2nccc(-c3cc4ccccc4s3)n2)cc1)N1CCC(N2CCCC2)CC1 [IKK-16 (IKK Inhibitor VII)],1.6
5,CCN1/C(=C/C(C)=O)Sc2ccc(OC)cc21 [TG003],1.2
6,c1cncc(CN2CCC(n3ncc4c(N5CCOCC5)nc(-c5ccc6[nH]ccc6c5)nc43)CC2)c1 [WAY-600],-0.4
7,CC(C)(C)c1nc(-c2cccc(NS(=O)(=O)c3c(F)cccc3F)c2F)c(-c2ccnc(N)n2)s1 [Dabrafenib (GSK2118436)],0.0
8,O=C(NCc1ccccc1)c1csc(Nc2ccncn2)n1 [Thiazovivin],0.0

# Same assay, conditions: DSF, 10 µM compound, 2 µM LmxCLK1, mean of two runs
row,Structure (SMILES),ΔTm Average [°C]
1,CC(C)n1nc(-c2ccc3oc(N)nc3c2)c2c(N)ncnc21 [INK 128 (MLN0128)],0.5
2,COc1cc(Nc2ncc(F)c(Nc3ccc4c(n3)N(COP(=O)(O)O)C(=O)C(C)(C)O4)n2)cc(OC)c1OC [Fostamatinib (R788)],0.2
3,Cn1cc(C2=C(c3cn(C4CCN(Cc5ccccn5)CC4)c4ccccc34)C(=O)NC2=O)c2ccccc21 [Enzastaurin (LY317615)],0.0
4,O=C(c1ccc(Nc2nccc(-c3cc4ccccc4s3)n2)cc1)N1CCC(N2CCCC2)CC1 [IKK-16 (IKK Inhibitor VII)],1.8
5,CCN1/C(=C/C(C)=O)Sc2ccc(OC)cc21 [TG003],1.3
6,c1cncc(CN2CCC(n3ncc4c(N5CCOCC5)nc(-c5ccc6[nH]ccc6c5)nc43)CC2)c1 [WAY-600],-0.2
7,CC(C)(C)c1nc(-c2cccc(NS(=O)(=O)c3c(F)cccc3F)c2F)c(-c2ccnc(N)n2)s1 [Dabrafenib (GSK2118436)],-0.1
8,O=C(NCc1ccccc1)c1csc(Nc2ccncn2)n1 [Thiazovivin],0.2

# Target: NLuc::LmxCLK1 (Leishmania mexicana, UniProt E9AMP2)
# Test: cell-based
# Format: cell-based
# Settings: 10 µM compound, tracer SV366, promastigotes
# Protocol: All compounds were tested at a fixed concentration of 10 µM to enable direct comparison of their target occupancy in live cells.
# Serially diluted probes (5 µL) were added to 85 µL of cells in culture media or 85 µL of purified protein. Final well volumes were adjusted to 100 µL with sterile Opti-MEM™ I Reduced Serum Medium (Thermo-Scientific) – for wells containing cells; or Kinase Buffer - for wells containing purified protein. For tracer displacement assays, samples were prepared as above, but final volume was brought to 100 µL by addition of vehicle or serially-diluted test compounds. Final DMSO concentration in these assays was 1%. […] Light emissions at 460+10 nm (BRET donor) and at 610+20 nm (BRET acceptor) were sequentially recorded (integration time = 0.5 s, gain = 3600) using a luminometer (BMG LABTECH Clariostar or Biotek Synergy HT). BRET values are reported in milli-BRET (mBRET) units (mBU), obtained by dividing the acceptor luminescence by the donor luminescence and multiplying the result by a factor of 1,000. BRET values were converted to blank-corrected probe occupancies (%) according to equation [1]: (1) Probeoccupancy(%)=X−Z/Y−Z×100 where X = mBRET value in the presence of the test compound and the probe, Y = mBRET value in the presence of probe only, and Z = mBRET value in the absence of probe and test compound. […]
Structure (SMILES),Target occupancy Run 1 [%],Target occupancy Run 2 [%]
CC(C)n1nc(-c2ccc3oc(N)nc3c2)c2c(N)ncnc21 [INK 128 (MLN0128)],-0.8,0.1
COc1cc(Nc2ncc(F)c(Nc3ccc4c(n3)N(COP(=O)(O)O)C(=O)C(C)(C)O4)n2)cc(OC)c1OC [Fostamatinib (R788)],0.9,-17.9
Cn1cc(C2=C(c3cn(C4CCN(Cc5ccccn5)CC4)c4ccccc34)C(=O)NC2=O)c2ccccc21 [Enzastaurin (LY317615)],2.6,-1.9
O=C(c1ccc(Nc2nccc(-c3cc4ccccc4s3)n2)cc1)N1CCC(N2CCCC2)CC1 [IKK-16 (IKK Inhibitor VII)],10.2,-10.2
CCN1/C(=C/C(C)=O)Sc2ccc(OC)cc21 [TG003],10.1,-15.2
c1cncc(CN2CCC(n3ncc4c(N5CCOCC5)nc(-c5ccc6[nH]ccc6c5)nc43)CC2)c1 [WAY-600],4.0,-10.8
CC(C)(C)c1nc(-c2cccc(NS(=O)(=O)c3c(F)cccc3F)c2F)c(-c2ccnc(N)n2)s1 [Dabrafenib (GSK2118436)],0.7,-7.9
Cc1[nH]c2ccccc2c1C1=C(NCCc2ccc(F)cc2)C(=O)N(C)C1=O [IM-12],-0.3,-14.5
COc1cc(Nc2ncc(F)c(Nc3ccc4c(n3)NC(=O)C(C)(C)O4)n2)cc(OC)c1OC [R406],6.2,-5.8
COc1ccc(-c2cc3c(C)nc(N)nc3n([C@H]3CC[C@H](OCCO)CC3)c2=O)cn1 [PF-04691502],-3.4,-25.8
O=C(NCc1ccccc1)c1csc(Nc2ccncn2)n1 [Thiazovivin],-3.6,1.5
CN(C)CCCn1cc(C2=C(c3c[nH]c4ccccc34)C(=O)NC2=O)c2ccccc21 [GF109203X],-5.7,-5.0
N#Cc1c(O)c2c(-c3ccc(-c4ccccc4O)cc3)csc2[nH]c1=O [A-769662],1.2,-1.3

# Same assay, conditions: 10 µM compound, tracer SV366, promastigotes, mean of two experiments
row,Structure (SMILES),Target occupancy Average [%]
1,CC(C)n1nc(-c2ccc3oc(N)nc3c2)c2c(N)ncnc21 [INK 128 (MLN0128)],-0.3
2,COc1cc(Nc2ncc(F)c(Nc3ccc4c(n3)N(COP(=O)(O)O)C(=O)C(C)(C)O4)n2)cc(OC)c1OC [Fostamatinib (R788)],-8.5
3,Cn1cc(C2=C(c3cn(C4CCN(Cc5ccccn5)CC4)c4ccccc34)C(=O)NC2=O)c2ccccc21 [Enzastaurin (LY317615)],0.3
4,O=C(c1ccc(Nc2nccc(-c3cc4ccccc4s3)n2)cc1)N1CCC(N2CCCC2)CC1 [IKK-16 (IKK Inhibitor VII)],0.0
5,CCN1/C(=C/C(C)=O)Sc2ccc(OC)cc21 [TG003],-2.5
6,c1cncc(CN2CCC(n3ncc4c(N5CCOCC5)nc(-c5ccc6[nH]ccc6c5)nc43)CC2)c1 [WAY-600],-3.4
7,CC(C)(C)c1nc(-c2cccc(NS(=O)(=O)c3c(F)cccc3F)c2F)c(-c2ccnc(N)n2)s1 [Dabrafenib (GSK2118436)],-3.6
8,Cc1[nH]c2ccccc2c1C1=C(NCCc2ccc(F)cc2)C(=O)N(C)C1=O [IM-12],-7.4
9,COc1cc(Nc2ncc(F)c(Nc3ccc4c(n3)NC(=O)C(C)(C)O4)n2)cc(OC)c1OC [R406],0.2
10,COc1ccc(-c2cc3c(C)nc(N)nc3n([C@H]3CC[C@H](OCCO)CC3)c2=O)cn1 [PF-04691502],-14.6
11,O=C(NCc1ccccc1)c1csc(Nc2ccncn2)n1 [Thiazovivin],-1.1
12,CN(C)CCCn1cc(C2=C(c3c[nH]c4ccccc34)C(=O)NC2=O)c2ccccc21 [GF109203X],-5.4
13,N#Cc1c(O)c2c(-c3ccc(-c4ccccc4O)cc3)csc2[nH]c1=O [A-769662],0.0
